Measured values published in EP0451299B1, “MAGNETOCONTROLLABLE CARRIER WITH PHYSIOLOGICALLY ACTIVE SUBSTANCE AND METHOD FOR MAKING SAID CARRIER” (KHOLODOV, Leonid Efimovich, priority 1989, dated 1991).

How the values were obtained:
[1] = system: carcinosarcome de Walker, sarcome S-45 ou sarcome M-1; assay type: in vivo, rats; conditions: for régression complète de la tumeur / durée de vie, augmentation par rapport au groupe témoin (sans antibiotiques): ordinary solution i.v., no carrier: daunorubicyne 2 mg/kg/jour for 5 days, carminomicyne 3 x 0,4 mg/kg at 120 h intervals; for durée de vie, augmentation par rapport au groupe témoin (sans antibiotiques): mean; for examens histologiques de divers tissus, surtout du tissu hépatique / hémopoïèse: rat, in vivo, iv
From the text: Dans les essais effectués, le support selon l'invention était porteur d'une préparation anticancéreuse : daunorubicyne, doxorubicyne ou carminomicyne; teneur en fer : 56 à 64 % en masse, le reste étant du carbone; teneur en antibiotique daunorubicyne, doxorubicyne ou carminomycine adsorbé : 2 à 2,5 % en masse.
L'action anticancéreuse a été établie chez des rats et comparée à celle des microsphères connues portant lesdits antibiotiques (taille moyenne des microsphères: 0,2 à 0,5 »m; enveloppe en albumine dénaturée), ainsi qu'à celle de ces médicaments anticancéreux sans support à commande magnétique. Les sujets expérimentaux étaient des rats d'une masse allant de 180 à 220 g. On a réinoculé aux rats (au milieu de la queue) une des […] couches des tumeurs réinoculables des rats; carcinosarcome de Walker, sarcome S-45 ou sarcome M-1 (40 rats pour chaque souche). Le traitement des animaux a commencé lorsque le volume de la teneur avait 1000 mm³.
Le support selon l'invention contenant de la daunorubicyne ou de la carminomicyne a été injecté en une seule fois lentement dans la veine caudale des rats, dose de 40 mg (0,8 mg en calculant en antibiotique, soit 4 mg/kg), sous forme d'une suspension en 1 ml de solution de gélatinol à 8 % pour injections. Dans le cas de la doxorubicyne la dose a été de 12 mg/kg (dose de support : 96 mg en calculant en antibiotique. Avant l'injection, un aimant permanent de samarium-cobalt (6000 Oe) a été fixé sur la queue au niveau de la tumeur. La localisation du support à antibiotique selon l'invention dans le vaisseau au niveau de la tumeur a été contrôlée à l'aide de radiogrammes.
Les microsphères albumineuses ont été injectées en une seule fois, comme décrit ci-dessus, dans une dose de 4 mg/kg (en calculant en daunorubicyne ou en carminomicyne). Les antibiotiques (sans support à commande magnétique) ont été injectés comme suit : la daunorubicyne a été injectée dans la veine caudale des rats avec une dose de 2 mg/kg/jour en solution de gélatinol à 8 % pour des injections pendant 5 jours (une injection par jour); carminomicyne : 0,4 mg/kg 3 fois avec des intervalles de 120 heures; doxorubicyne : en une seule fois avec une dose de 12 mg/kg. Dans le groupe témoin des animaux atteints de tumeur on a injecté dans la veine, 1 ml de solution de gélatinol à 8 % pour injections.

[2] = system: oedème provoqué par le dextrane; test: Anti-oedema activity, dextran-induced tail oedema (plethysmometer); assay type: in vivo, rats; conditions: ordinary solution i.v. 20 mg/kg; 1 hour after injection
From the text: On a essayé l'activité anti-oedémique du support, selon l'invention, contenant une préparation antihistaminique (la diphénylhydramine). Le support selon l'invention se composait de 56 à 63 % en masse de fer et de carbone pour le reste; la teneur en diphénylhydramine adsorbée était de 3 % en masse.
Des essais comparatifs de l'activitié anti-oedémique ont été effectués en la comparant à celle de la diphénylhydramine injectée sous forme de solution ordinaire.
Les sujets des essais étaient 30 rats mâles de la population Vistar d'un poids allant de 180 à 220 g. Pour obtenir un oedème expérimental, on a injecté par voie subplantaire au milieu de la queue de 10 rats, 0,1 ml de solution aqueuse de dextrane à 4 %. Un aimant permanent de samarium-cobalt (6000 Oe) a été fixé à cet endroit et on a injecté aussitôt lentement dans la veine caudale 20 mg de support, selon l'invention, contenant 0,6 mg de diphénylhydramine en 0,7 ml de solution de gélatinol à 8 % pour injections (dose moyenne en calculant en diphénylhydramine : 3 mg/kg). La localisation de la dispersion dans le canal vasculaire a été contrôlée par radiographie. Chez 10 rats on a injecté de la même façon la solution de dextrane et on a injecté aussitôt dans la veine caudale la solution de diphénylhydramine (dose : 20 mg/kg, soit en moyenne 5 mg par rat) en 0,7 ml de solution de gélatinol à 8 % pour injections. […]

Compound | régression complète de la tumeur [1] | durée de vie, augmentation par rapport au groupe témoin (sans antibiotiques) [1] | examens histologiques de divers tissus, surtout du tissu hépatique [1] | hémopoïèse [1] | augmentation du volume de la queue [2] | augmentation du volume de la queue plus faible que dans le groupe témoin [2]
COc1cccc2c1C(=O)c1c(O)c3c(c(O)c1C2=O)C[C@@](O)(C(C)=O)C[C@@H]3O[C@H]1C[C@H](N)[C@H](O)[C@H](C)O1 [daunorubicyne] | en aucun cas | 15-30% | altérations cytotoxiques graves | oppression de l'hémopoïèse | – | –
CN(C)CCOC(c1ccccc1)c1ccccc1 [diphénylhydramine] | – | – | – | – | 1025±41 mm³ | 33±2%
CC(=O)[C@]1(O)Cc2c(O)c3c(c(O)c2[C@@H](O[C@H]2C[C@H](N)[C@H](O)[C@H](C)O2)C1)C(=O)c1c(O)cccc1C3=O [carminomicyne] | en aucun cas | 15-30% | altérations cytotoxiques graves | oppression de l'hémopoïèse | – | –
